Laboratory results: patent publication EP0374249A1, “METHOD OF STERILIZING PLANT POLLEN” (VSESOJUZNY NAUCHNO-ISSLEDOVATELSKY INST. SELSKOKHOZYAISTV. …, priority 1988, dated 1989)

System: Hirse Sorte K-9693 Kormovoe 1
Assay: Field test of pollen sterilisation, millet K-9693 Kormovoe 1
Type: in vivo
Conditions: 1% aqueous emulsion, 6 kg/ha; for Prozentsatz der Sterilität / Anzahl von Körnern der Rispe bei freier Bestäubung / Anzahl von Körnern der Rispe im Isolator: period V of organogenesis; for Anzahl von Körnern der Rispe bei freier Bestäubung: free pollination; for Anzahl von Körnern der Rispe im Isolator: isolated panicles; for Prozentsatz des Ansetzens von Körnern bei freier Bestäubung: period V, non-isolated control = 100%
From the text: Die gametozide Aktivität der erfindungsgemässen Sterilisationsmittel war im Feldversuch in verschiedenen Bodenklimatischen Zonen mit Teilstücken von 10 m^2 Grösse in drei- bis viermaliger Wiederholung nachgewiesen. Jedes Sterilisationsmittel wurde mindestens 5 Jahre lang geprüft.
Die Entwicklung der Perioden der Organogenese wird zytologischüberwacht. Die Behandlung von Pflanzen mit dem Sterilisationsmittel erfolgt am Anfang der fünften Periode der Organogenese nach Kupermann.
Mit dem Ahrenschiebe verwirklicht man die Isolierung von Hauptähren und anderen Stockwerken in Pergamentbeuteln. Bei Weizen und Tritikale werden Einzelisolatoren verwendet. Bei Roggen schliesst man je Ähre 5 bis 7 verschiedene nebeneinander befindliche Pflanzen unter einen gemeinsamen Isolator ein. Bei Hirse wird jede Rispe getrennt isoliert. Der Sterilitätsprozentsatz (X) für Weizen, Roggen, Tritikale und Hirse wird nach folgender Formel [formula] ermittelt.
Die Kornzahl in nicht isolierten ähren von Kontrollpflanzen wird bedingt für 100% Ansetzen bei freier Bestäubung angenommen.
Um zuverlässige Angaben zu erhalten, verwendet man 20 bis 25 Isolatoren jeder Wiederholung für Weisen und Tritikale, 10 bis 15 Gruppenisolatoren jeder Wiederholung für Roggen und Hirse.
Pflanzen der Hirse Sorte K-9693 Kormovoe 1 werden in der V. Periode der Organogenese (nach Kupermann) mit einer 1%igen wässrigen Emulsion von N-(2-Dimethylaminoäthyl) maleaminsäure, N-(3-Dimethylaminopropyl)maleaminsäure, N-Äthylmaleaminsäure, N-Karbamoylmaleaminsäure behandelt. Die Emulsion enthält 0,01 Masse% Dimethylformamid und 0,1 Masse% Kalziumalkylbenzolsulfonat mit 12 bis 14 Kohlenstoffatomen.
Der Verbrauch an Präparat beträgt 6 kg/ha. Als Kontrolle dienen Pflanzen, behandelt mit einem Verdünner ohne Sterilisationsmittel. Die Prüfergebnisse sind in der Tabelle13 dargestellt. […] Periode der Organogenese erhalten.

`CN(C)CCCNC(=O)/C=C\C(=O)O` [Beispiel 55, N-(3-Dimethylaminopropyl)maleaminsäure] was tested, and the “Prozentsatz der Sterilität” value was 100,0%, the “Anzahl von Körnern der Rispe bei freier Bestäubung” value was 100,8 and the “Anzahl von Körnern der Rispe im Isolator” value was 0,0. For the same compound, the “Prozentsatz des Ansetzens von Körnern bei freier Bestäubung” value was 68,7%.
For `CCNC(=O)/C=C\C(=O)O` [Beispiel 56, N-Äthylmaleaminsäure], the “Prozentsatz der Sterilität” value was 100,0%, the “Anzahl von Körnern der Rispe bei freier Bestäubung” value was 114,7 and the “Anzahl von Körnern der Rispe im Isolator” value was 0,0. The “Prozentsatz des Ansetzens von Körnern bei freier Bestäubung” value was 78,2%.
`O=C(O)/C=C\C(=O)NCCO` [Beispiel 57, N-(2-Hydroxyäthyl)maleaminsäure] was tested, and the “Prozentsatz der Sterilität” value was 100,0%, the “Anzahl von Körnern der Rispe bei freier Bestäubung” value was 127,2 and the “Anzahl von Körnern der Rispe im Isolator” value was 0,0. For the same compound, the “Prozentsatz des Ansetzens von Körnern bei freier Bestäubung” value was 86,7%.
For `NC(=O)NC(=O)/C=C\C(=O)O` [Beispiel 58, N-Karbamoylmaleaminsäure], the “Prozentsatz der Sterilität” value was 100,0%, the “Anzahl von Körnern der Rispe bei freier Bestäubung” value was 133,6 and the “Anzahl von Körnern der Rispe im Isolator” value was 0,0. The “Prozentsatz des Ansetzens von Körnern bei freier Bestäubung” value was 91,1%.
